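Results reflect a 48-hour exposure of cells in 96-well plates to compound at five concentrations. The concentration for 50% growth inhibition is given as GI50. At the TGI there is no net growth.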
What was measured:
Test in all cases: NCI anticancer screen, dose series, 48 h
SK-MEL-5 melanoma = tested on: SK-MEL-5 melanoma
UACC-62 melanoma = tested on: UACC-62 melanoma
KM12 colon = tested on: KM12 colon
U251 CNS = tested on: U251 CNS
NCI-H460 lung = tested on: NCI-H460 lung
A549 NSCLC = tested on: A549 NSCLC
MALME-3M melanoma = tested on: MALME-3M melanoma
HCT-116 colon = tested on: HCT-116 colon
COLO 205 colon = tested on: COLO 205 colon
HS 578T breast = tested on: HS 578T breast

SMILES | TGI (SK-MEL-5 melanoma) [µM] | TGI (UACC-62 melanoma) [µM] | TGI (KM12 colon) [µM] | TGI (U251 CNS) [µM] | TGI (NCI-H460 lung) [µM] | TGI (A549 NSCLC) [µM] | TGI (MALME-3M melanoma) [µM] | TGI (HCT-116 colon) [µM] | TGI (COLO 205 colon) [µM] | TGI (HS 578T breast) [µM] | GI50 (SK-MEL-5 melanoma) [µM] | GI50 (UACC-62 melanoma) [µM] | GI50 (KM12 colon) [µM] | GI50 (U251 CNS) [µM] | GI50 (NCI-H460 lung) [µM] | GI50 (A549 NSCLC) [µM] | GI50 (MALME-3M melanoma) [µM] | GI50 (HCT-116 colon) [µM] | GI50 (COLO 205 colon) [µM] | GI50 (HS 578T breast) [µM]
COc1ccc(C2[C@@H](Cl)C(=O)N2c2ccc(OC)cc2)cc1 (stereo partly drawn) | > 100 | > 100 | > 100 | > 100 | > 100 | > 100 | > 100 | > 100 | > 100 | – | – | – | – | – | – | – | – | – | – | –
O=c1[nH]c(C2CCCCC2)nc2ccc(Cl)cc12 | > 100 | > 100 | > 100 | > 100 | – | > 100 | > 100 | > 100 | > 100 | – | – | – | – | – | – | – | – | – | – | –
OCC1OC(NO)C(O)C(O)C1O (stereo not drawn) | > 100 | > 100 | > 100 | > 100 | > 100 | > 100 | > 100 | > 100 | > 100 | – | – | – | – | – | – | – | – | – | – | –
O=S(=O)(O)c1ccc([Se][Se]c2ccc(S(=O)(=O)O)cc2)cc1 | > 100 | > 100 | > 100 | > 100 | > 100 | > 100 | > 100 | > 100 | > 100 | – | – | – | – | – | – | – | – | – | – | –
COc1ccc(NC(=O)CC2SC(=Nc3ccc(Cl)cc3C)NC2=O)c([N+](=O)[O-])c1 (stereo not drawn) | > 100 | > 100 | – | > 100 | > 100 | > 100 | > 100 | > 100 | – | – | – | – | – | – | – | – | – | – | – | –
COc1cc(OC)c(OC)cc1/C=C/c1ccc2ccccc2n1 | > 10 | > 10 | > 10 | > 10 | – | > 10 | > 10 | > 10 | > 10 | > 10 | – | – | – | – | – | – | – | – | – | –
CCn1c(C)nc([N+](=O)[O-])c1Sc1ncc[nH]1 | > 100 | > 100 | > 100 | > 100 | > 100 | > 100 | 93.8 | > 100 | > 100 | – | – | – | – | – | – | – | – | – | – | –
CCCCCCCC(=O)[O-].N.N.N.N.N.[Co+3].[O-][Cl+3]([O-])([O-])[O-] | > 100 | > 100 | > 100 | > 100 | > 100 | > 100 | > 100 | > 100 | > 100 | – | > 100 | > 100 | > 100 | > 100 | > 100 | > 100 | > 100 | > 100 | > 100 | –
O=S1c2ccccc2N=C(c2cccs2)CC1c1ccccc1O (stereo not drawn) | > 100 | > 100 | > 100 | – | > 100 | > 100 | > 100 | – | > 100 | – | – | – | – | – | – | – | – | – | – | –
CS(=O)(=O)Nc1cc(-c2ccc3ncnc(Nc4ccc(OCc5ccccn5)c(Cl)c4)c3c2)cnc1Cl | 0.68 | 1.58 | 2.18 | 2.31 | > 100 | 5.48 | 0.736 | > 100 | 1.85 | – | 0.214 | 0.264 | 0.572 | 0.316 | 0.502 | 1.09 | 0.0851 | 0.648 | 0.316 | –
c1ccc2cc(Cn3c(-c4cccc5ccccc45)[n+](Cc4ccc5ccccc5c4)c4c5ccccc5c5ccccc5c43)ccc2c1 | 0.338 | 1.35 | 1.2 | 1.42 | 1.41 | – | 1.45 | 1.5 | – | 2.45 | 0.179 | 0.302 | 0.285 | 0.165 | 0.254 | – | 0.285 | 0.176 | – | 0.383
O=C(Nc1cccc(Cl)c1)Nc1cc(C(F)(F)F)ccc1Cl | 3.51 | 13.7 | 6.98 | 8.56 | 6.84 | 8.98 | – | 7.48 | 3.68 | 8.39 | 1.92 | 2.8 | 2.65 | 3.32 | 2.54 | 2.72 | – | 2.54 | 2.09 | 2.63
Oc1ccccc1-c1cnnc(-c2ccccc2O)c1 | – | 34 | – | – | – | – | 64.7 | 44.2 | 41.7 | – | – | – | – | – | – | – | – | – | – | –
[N-]=[N+]=NCCCn1c2c(c3ccccc3c1=O)C(=O)c1cc3c(cc1-2)OCO3 | > 100 | > 100 | > 100 | > 100 | > 100 | > 100 | – | > 100 | – | > 100 | 45.6 | 26.9 | > 100 | 28.7 | 8.25 | > 100 | – | 29.8 | – | > 100
COc1ccc(N2CCN(c3nc(-c4ccccn4)nc4sc5c(c34)CCCCCC5)CC2)cc1 | > 100 | > 100 | > 100 | > 100 | > 100 | > 100 | – | > 100 | > 100 | > 100 | 2.85 | 6.86 | 5.15 | 4.26 | 4.67 | 3.25 | – | 3.22 | 5.61 | 57.6
O=S1(=O)CC#CC[C@@H](CO)[C@@H](CO)CC#CC1 | > 100 | > 100 | > 100 | > 100 | > 100 | > 100 | 68.2 | > 100 | – | – | – | – | – | – | – | – | – | – | – | –
CCCCCCCN(CCCCCCC)C(=N)c1ccc(OC)c2ccccc12 | 3.01 | 2.77 | – | 2.81 | – | 2.82 | – | – | 2.35 | 3.53 | 1.58 | 1.34 | – | 1.39 | – | 1.37 | – | – | 1.01 | 1.56
COC1C[C@H](O[C@@H]2C[C@H](O[C@@H]3C[C@H](O[C@@H]4C(=O)c5c(cc6cc(O[C@H]7C[C@@H](O[C@H]8C[C@@H](O)[C@H](O)C(C)O8)[C@H](O)C(C)O7)c(C)c(O)c6c5O)C[C@H]4C(OC)C(=O)[C@@H](O)[C@@H](C)O)OC(C)[C@H]3O)OC(C)[C@@H]2O)OC(C)[C@@H]1O (stereo partly drawn) | 0.175 | 0.134 | – | 29.6 | > 32.5 | > 32.5 | 0.437 | > 32.5 | 0.147 | 4.96 | 0.0641 | 0.0434 | – | 0.0631 | 0.0802 | 0.185 | 0.0861 | 0.0968 | 0.0571 | 0.0743

From PubChem BioAssay (NCI)
